In ChEMBL document CHEMBL1143085, “Synthesis and in vitro antimycobacterial activity of B-ring modified diaryl ether InhA inhibitors” (Bioorg Med Chem Lett, 2008):
In brackets after ≈: the same amount, converted by molar mass.

Tests used:
[1] = system: Mycobacterium tuberculosis; test: Antimicrobial activity against Mycobacterium tuberculosis H37RV; format: functional
[2] = Partition coefficient, log P of the compound; format: physicochemical; conditions: octanol/water
[3] = target: T1, Enoyl-[acyl-carrier-protein] reductase [NADH] (Mycobacterium tuberculosis, UniProt P9WGR1)
T1 sequence (P9WGR1 whole entry): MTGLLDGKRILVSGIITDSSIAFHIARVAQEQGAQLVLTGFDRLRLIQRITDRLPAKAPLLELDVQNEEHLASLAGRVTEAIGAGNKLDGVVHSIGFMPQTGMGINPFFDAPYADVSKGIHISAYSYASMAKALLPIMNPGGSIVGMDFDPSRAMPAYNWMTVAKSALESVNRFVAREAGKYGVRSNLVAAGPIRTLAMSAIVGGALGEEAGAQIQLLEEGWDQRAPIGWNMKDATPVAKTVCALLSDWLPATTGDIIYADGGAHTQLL
Description: Inhibition of Mycobacterium tuberculosis H37RV InhA

[4] = target: T1, Enoyl-[acyl-carrier-protein] reductase [NADH]; test: Inhibition of 100 nM Mycobacterium tuberculosis H37RV InhA

Row | Compound | MIC90 [1] [µg/mL] | logP ([2]; read-out: LogP) | Ki [3] [nM] | IC50 [4] [nM] | logP [2]
1 | CCCCCCc1ccc(Oc2ncccn2)c(O)c1 | 100 (≈ 367 µM) | 4.46 | 1 |  | 
2 | CCCCCCc1ccc(Oc2cnccn2)c(O)c1 | 6.25 (≈ 22.9 µM) | 4.76 | 1 |  | 
3 | CCCCCCc1ccc(Oc2nc(OC)cc(OC)n2)c(O)c1 | 100 (≈ 301 µM) |  | 1 |  | 
4 | CCCCCCc1ccc(Oc2ccncc2)c(O)c1 | 3.13 (≈ 11.5 µM) | 4.93 | 1 |  | 
5 | CCCCCCc1ccc(Oc2ccc(NC(=O)c3ccno3)cc2)c(O)c1 | > 200 | 5.15 | 1 |  | 
6 | CCCCCCc1ccc(Oc2ccc(CN3CCN(C)CC3)cc2)c(O)c1 | > 100 |  | 1 |  | 
7 | CCCCCCc1ccc(Oc2ccc(NC(=O)C(=O)O)cc2)c(O)c1 | > 200 |  | 1 |  | 
8 | CCCCCCc1ccc(Oc2ccc(NC(C)=O)cc2)c(O)c1 | 50 (≈ 153 µM) |  | 1 |  | 
9 | CCCCCCc1ccc(Oc2cccc(NC(=O)C(=O)O)c2)c(O)c1 | 130 (≈ 364 µM) |  | 1 | 580 | 
10 | CCCCCCc1ccc(Oc2ccc(N)cc2)c(O)c1 | 12.5 (≈ 43.8 µM) | 4.93 |  |  | 
11 | CCCCCCc1ccc(Oc2ccccc2NC(C)=O)c(O)c1 | > 200 | 5.28 | 1 | 1550 | 
12 | CCCCCCc1ccc(Oc2ccccc2[N+](=O)[O-])c(O)c1 | 12.5 (≈ 39.6 µM) |  | 1 |  | 5.5
13 | CCCCCCc1ccc(Oc2cccc([N+](=O)[O-])c2)c(O)c1 | 12.5 (≈ 39.6 µM) |  |  |  | 
14 | CCCCCCc1ccc(Oc2ccc([N+](=O)[O-])cc2)c(O)c1 | 25 (≈ 79.3 µM) |  | 1 | 90 | 5.64
15 | CCCCCCc1ccc(Oc2ccccc2N)c(O)c1 | 3.13 (≈ 11 µM) | 5.27 |  |  | 
16 | CCCCCCc1ccc(Oc2ccccn2)c(O)c1 |  | 5.06 | 1 | 11500 | 
17 | CCCCCCc1ccc(Oc2ccccc2)c(O)c1 | 2.1 (≈ 7.77 µM) | 5.76 | 1 |  | 
18 | CCCCCCc1ccc(Oc2cccc(NC(C)=O)c2)c(O)c1 | 100 (≈ 305 µM) |  | 1 | 5600 | 
19 | CCCCCCc1ccc(Oc2cccc(N)c2)c(O)c1 | 100 (≈ 350 µM) |  | 1 |  | 
20 | CCCCCCc1ccc(Oc2cccc(NC(=O)c3ccno3)c2)c(O)c1 | > 200 | 5.22 | 1 | 1200 | 
21 | CCCCCCc1ccc(Oc2cccnc2)c(O)c1 | 3.13 (≈ 11.5 µM) |  | 1 |  | 
22 | CCCCCCc1ccc(Oc2ccccc2NC(=O)C(=O)O)c(O)c1 | 100 (≈ 280 µM) |  | 1 | 2360 | 
23 | CCCCCCc1ccc(Oc2ccccc2CN2CCN(C)CC2)c(O)c1 |  |  | 1 |  | 
24 | CCCCCCc1ccc(Oc2ccccc2NC(=O)c2ccno2)c(O)c1 | > 200 | 5.76 | 1 |  | 
25 | CCCCCCc1ccc(Oc2ncccn2)c(OC)c1 | 75 (≈ 262 µM) |  | 1 |  | 
